Experimental data taken from patent US4939133A, “N-substituted-2-hydroxy-α-oxo-benzeneacetamides and pharmaceutical compositions having activity as modulators of the arachidonic acid cascade” (Warner-Lambert Company, priority 1985, dated 1990).

Target: T1, human leukocyte 5-lipoxygenase (Homo sapiens, UniProt P09917)
T1 construct: endogenous in cells; host or cells: leukocytes from fresh blood of normal adult men
T1 sequence (P09917 1-674): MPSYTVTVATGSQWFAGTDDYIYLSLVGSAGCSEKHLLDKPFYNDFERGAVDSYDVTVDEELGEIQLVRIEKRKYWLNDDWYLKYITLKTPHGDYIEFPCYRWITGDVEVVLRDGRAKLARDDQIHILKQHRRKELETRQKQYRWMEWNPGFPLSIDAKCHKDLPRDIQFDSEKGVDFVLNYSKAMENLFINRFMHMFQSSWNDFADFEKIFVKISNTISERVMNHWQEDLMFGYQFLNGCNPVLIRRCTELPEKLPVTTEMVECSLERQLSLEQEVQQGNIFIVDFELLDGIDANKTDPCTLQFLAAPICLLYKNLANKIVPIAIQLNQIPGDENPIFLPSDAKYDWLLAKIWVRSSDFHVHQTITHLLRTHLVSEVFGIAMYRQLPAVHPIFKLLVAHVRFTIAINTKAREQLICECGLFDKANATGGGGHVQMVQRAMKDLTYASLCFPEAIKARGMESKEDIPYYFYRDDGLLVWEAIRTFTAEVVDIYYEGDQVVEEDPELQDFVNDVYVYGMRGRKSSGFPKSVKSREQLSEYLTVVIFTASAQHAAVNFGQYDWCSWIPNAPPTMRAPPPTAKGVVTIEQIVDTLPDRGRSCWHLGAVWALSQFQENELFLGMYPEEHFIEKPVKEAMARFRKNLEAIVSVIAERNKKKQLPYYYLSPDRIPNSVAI
Assay: 5-Lipoxygenase inhibition in human leukocytes, 5-HETE formation (5LOA1, 5LOA in Table 6)
Type: cell-based
Settings: 50% inhibition of 5-HETE formation, E -number means X 10^-no., read-out: IC50 (5LOA)
Excerpt: To Evaluate the Effect of Each Compounds as a 5-Lipoxygenase Inhibitor in Comparison to Standard Reference Agents in Human Leukocytes (5LOAl)
The purpose of this assay is to evaluate the activity of each compound as an inhibitor of human leukocyte 5-lipoxygenase.
Arachidonic acid and calcium ionophore A23187 are obtained from Sigma (St. Louis, MO). Silica gel plates, GF are obtained from Analtech (Newark, DE). Arachidonic acid, (1-^14 C) and 5-HETE (^3 H), 5-(S)-hydroxy-6-trans, 8,11,14-cis eicosatetraenoic acid, are obtained from New England Nuclear (Boston, MA). Six percent Dextran-70 in 0.9% NaCl is obtained from Cuffer Labs (Berkeley, CA).
Preparation of Leukocytes
Fresh blood from normal adult men who had not received any drugs for at least the previous five days is obtained by the Community Research Clinic (WL/PD) using venipuncture and collected into heparinized vacuotainer tubes. To every 100 ml of pooled blood is added 25 ml of dextran solution (6% dextran -70 in 0.9% sodium chloride containing 3% dextrose) and this is mixed gently in a plastic cylinder. The mixture is left to stand at room temperature for at least 90 minutes. The upper layer which is rich in leukocytes and platelets is then carefully decanted into 50 ml plastic tubes and centrifuged at about 100×g for eight minutes in and IEC centrifuge and rotor number 269 (about 600 rpm). The supernatant fluid is discarded and the pellet is resuspended in 10 ml of 0.87% ammonium chloride for exactly two minutes. This procedure is to lyse completely contaminating red blood cells. Leukocytes are then separated by centrifugation for ten minutes. The pellet is washed three times by suspension in 20 ml PBS (sodium chloride, 7.1 g; Na2 HPO4, 1.15 g; KH2 PO4,0.2 g, and KCl, 0.2 g/L) and centrifuged as before. The final pellet is suspended in PBS containing 0.87 mM CaCl2. Viability of the cells is then checked using trypan blue exclusion method and is found to be over 90%.
5-Lipoxygenase Enzyme Assay
Leukocyte cells in suspension (0.98 ml) are incubated with or without test compounds for five minutes at 37° C. in a shaking water bath. At this time a […] mixture is perpared per 1 ml of cell suspension: 100 mM arachidonic acid, 1 μl, 0.05 μCi ^14 C-arachidonic acid in 5 μl; 1 mM calcium ionophore A23187, 10 μl (1). This mixture is added and the incubation continued for five minutes. The reaction is stopped by adding four volumes of absolute ethanol and the mixture is kept in ice for 30 minutes. The floculated precipitate is separated by centrifugation at about 37,000×g for 20 minutes (Beckman Instruments rotor number 40). The alcohol extract is taken to dryness under a stream of nitrogen and the residue is dissolved in 100-200 μl absolute ethanol. At the time any turbidity is removed by centrifugation. An aliquot (25-50 μl) is applied onto 20×20 cm silica gel TLC plate and developed using the following solvent system: diethyl ether, petroleum ether (2040°C.),acetic acid (50:50: 1 v/v). Zones of 1 cm apart are scraped from the TLC plate and transferred to mini-vials. Methanol (0.5 ml) is added to dissolve the radioactivity adsorbed to the silica gel and scintillation fluid (H. P., Beckman), 5 ml is then added and vials are counted in a liquid scintillation counter. A sample of ^3 H-5-HETE is applied and used for the identification of the formed 5-HETE. Total radioactivity in the test as well as the control samples are normalized and the amount of 5-HETE present is calculated accordingly.
IC50 values are defined as the concentrations of test agents which caused a 50% inhibition of the formation of 5-HETE as compared to control and are determined by inspection of the concentration-response curves.

`COc1ccc(CCc2ccc(NC(=O)c3ccc(C)cc3O)cc2)cc1OC` [Example 46, N-[4-[2-(3,4-Dimethoxyphenyl)ethyl]phenyl]-2-hydroxy-4-methylbenzamide] showed an IC50 of 500 nM.
